Data on 53 compounds can be found in patent US20250066389A1, “HETEROCYCLIC AMIDES AND METHODS OF USING THE SAME” (Rgenta Therapeutics, Inc., priority 2021, published 2025).

Counter-ions that a name gives are not always drawn. A value given as a limit tells only on which side of the number the result lay.

Usually IC50 stands for the concentration that inhibits the measured activity by half.

For the first assay, the system named is PMS1. Briefly: Mini-Gene Reporter Assay—PMS1 (firefly luciferase mini-gene reporter transiently transfected into HEK293 cells). The class given is cell-based. The conditions noted are these: Homo sapiens; at 5 uM; mini-gene firefly luciferase reporter in HEK293 cells; read-out: PMS1 % Effect at 5 uM. The essentials: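 Luminescence (RLU) read-out of exon inclusion: compound dilutions, tested in duplicate, act on transiently transfected HEK293 cells carrying a firefly luciferase reporter fused downstream of the PMS1 skipped-exon region. Potency derived by Levenberg-Marquardt curve fitting, with percent effect at 5 μM.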
A general note: A reporter such as luciferase makes a cellular process visible.
For the compound `CCOc1cc2nn(C)cc2cc1C(=O)Nc1cnc(NCC2CNC(C)C2)cn1` (centres unmarked) [Compound 318], the activation at 5 µM was less than 50%.

In the case of `CCOc1cn2nc(C)cc2cc1C(=O)Nc1cnc(NCC2CNCC23CC3)cn1` (centres unmarked) [Compound 496], the activation at 5 µM is more than 75%.

Regarding `CCOc1cc2nn(C)cc2cc1C(=O)Nc1cnc(NCCC2CCCCN2)nc1` (centres unmarked) [Compound 460], the activation at 5 µM was less than 50%.

Consider `CCOc1cc2nc(C)cn2cc1C(=O)Nc1cnc(N2CCC(NC)CC2)cn1` [Compound 691], for which the activation at 5 µM is more than 75%. `CCOc1cc2nn(C)cc2cc1C(=O)Nc1cnc(N2CC34CCCC3(CNC4)C2)cn1` (centres unmarked) [Compound 320]: the activation at 5 µM is less than 50%. On the same count and under the same terms, the result for `CCOc1cc2nn(C)cc2cc1C(=O)Nc1cnc(N2CCC3(CCNCC3)C2)nc1` [Compound 454] reads less than 50%; that for `COc1cc2nc(C)cn2cc1C(=O)Nc1ccc(N2CCNC(CF)C2)cc1F` (centres unmarked) [Compound 159, N-(2-fluoro-4-(3-(fluoromethyl)piperazin-1-yl)phenyl)-7-methoxy-2-methylimidazo[1,2-a]pyridine-6-carboxamide], 50 to 75%; that for `CCOc1cc2nn(C)cc2cc1C(=O)Nc1cnc(NCC2CNCCO2)cn1` (centres unmarked) [Compound 354], less than 50%.

As to `CCOc1cc2nn(C)cc2cc1C(=O)Nc1cnc(N[C@@H]2CNC[C@@H](OC)C2)cn1` [Compound 306], the activation at 5 µM is less than 50%. On the same count and under the same terms, the value for `CCOc1cc2nn(C)cc2cc1C(=O)Nc1cnc(N2CCC(N)C2)cn1` (centres unmarked) [Compound 372] was more than 75%. Same read-out and setting: the value for `CCOc1cc2nn(C)cc2cc1C(=O)Nc1cnc(N2CCCC(CCN)C2)cn1` (centres unmarked) [Compound 353] was less than 50%. Consider `Cc1cn2cc(C(=O)Nc3ccc(N4CCNCC4)cc3F)ncc2n1` [Compound 101, N-(2-fluoro-4-(piperazin-1-yl)phenyl)-2-methylimidazo[1,2-a]pyrazine-6-carboxamide HCl Salt], for which the activation at 5 µM is less than 50%. Still for that read-out and setting: the result for `CCOc1cn2nc(C)cc2cc1C(=O)Nc1cnc(N(C)C2CCNCC2)cn1` [Compound 558] reads more than 75%; that for `CCOc1cc2nn(C)cc2cc1C(=O)Nc1cnc(N2CCOC3(CCNC3)C2)cn1` (centres unmarked) [Compound 341], less than 50%. Same read-out and setting: the result for `COc1cc2nc(C)cn2cc1C(=O)Nc1ccc(N2CCC3(CC2)CNC3)cc1F` [Compound 150, N-(2-fluoro-4-(2,7-diazaspiro[3.5]nonan-7-yl)phenyl)-7-methoxy-2-methylimidazo[1,2-a]pyridine-6-carboxamide] reads less than 50%; that for `CCOc1cc2nn(C)cc2cc1C(=O)Nc1cnc(NCC2CNC(C)C2)nc1` (centres unmarked) [Compound 413], less than 50%.

With `CCOc1cn2nc(C)cc2cc1C(=O)Nc1cnc(NCCNCCOC)cn1` [Compound 531], the activation at 5 µM is less than 50%.

For `CCOc1cc2nn(C)cc2cc1C(=O)Nc1cnc(N2CC(N)C2)nc1` [Compound 479], the activation at 5 µM is less than 50%.

For `CCOc1cc2nn(C)cc2cc1C(=O)Nc1cnc(NCc2ccc(CN3CCNCC3)cc2)cn1` [Compound 334], the activation at 5 µM was less than 50%. The same measure, in the same setting: the result for `CCOc1cc2nc(C)cn2cc1C(=O)Nc1cnc(N2C3CCC2CNC3)cn1` [Compound 686] reads more than 75%; that for `CCOc1cc2nn(C)cc2cc1C(=O)Nc1cnc(NC(C)CNC)nc1` (centres unmarked) [Compound 424], less than 50%. Same read-out and setting: the value for `CCOc1cn2nc(C)cc2cc1C(=O)Nc1cnc(N2CCC3(CCCN3)CC2)cn1` [Compound 530] was more than 75%; that for `CNC1CCCN(c2ccc(NC(=O)c3cn4cc(C)nc4cc3OC)c(F)c2)C1` (centres unmarked) [Compound 167, N-(2-fluoro-4-(3-(methylamino)piperidin-1-yl)phenyl)-7-methoxy-2-methylimidazo[1,2-a]pyridine-6-carboxamide] was 50 to 75%. Same read-out and setting: the value for `CCOc1cn2nc(C)cc2cc1C(=O)Nc1cnc(N(C)C[C@@H]2CCCN2)nc1` [Compound 576] was less than 50%; that for `CCOc1cn2nc(C)cc2cc1C(=O)Nc1cnc(NCC(N)c2cc(F)cc(Cl)c2)nc1` (centres unmarked) [Compound 569] was less than 50%. In the case of `COc1cc2nn(C)cc2cc1C(=O)Nc1ccc(N2CC3(CNC3)C2)cc1F` [Compound 116, N-(2-fluoro-4-(2,6-diazaspiro[3.3]heptan-2-yl)phenyl)-6-methoxy-2-methyl-2H-indazole-5-carboxamide TFA Salt], the activation at 5 µM is less than 50%. Still for that read-out and setting: the result for `CCOc1cc2nc(C)cn2cc1C(=O)Nc1ccc(N2CC[C@@H](NC)C2)nn1` (single isomer, unassigned) [Compound 707] reads more than 75%.

Take `CCOc1cc2nn(C)cc2cc1C(=O)Nc1cnc(NC(C)CNC)cn1` (centres unmarked) [Compound 328]: the activation at 5 µM is less than 50%. Same read-out and setting: the result for `CCOc1cc2nn(C)cc2cc1C(=O)Nc1cnc(NC2CNCC2(C)C)nc1` (centres unmarked) [Compound 407] reads less than 50%; that for `CCOc1cc2nn(C)cc2cc1C(=O)Nc1cnc(NCC2CNCCC2(F)F)nc1` (centres unmarked) [Compound 411], less than 50%; that for `CCOc1cn2nc(C)cc2cc1C(=O)Nc1cnc(NCCC2CC(F)(F)CN2)nc1` (centres unmarked) [Compound 567], less than 50%. Consider `CCOc1cc2nn(C)cc2cc1C(=O)Nc1cnc(NCCNC)nc1` [Compound 472], for which the activation at 5 µM was less than 50%.

As to `CCOc1cn2nc(C)cc2cc1C(=O)Nc1cnc(N2CCC(C(O)C3CCNCC3)CC2)nc1` (centres unmarked) [Compound 609], the activation at 5 µM was less than 50%.

Turning to `CCOc1cc2nn(C)cc2cc1C(=O)Nc1cnc(N[C@@H]2CNC[C@H](F)C2)nc1` [Compound 380], the activation at 5 µM was less than 50%. On the same count and under the same terms, the value for `CCOc1cc2nn(C)cc2cc1C(=O)Nc1cnc(NCC[C@H]2CCNC2)cn1` [Compound 333] was less than 50%.

In the case of `CCOc1cn2nc(C)cc2cc1C(=O)Nc1cnc(N2CCC(N)CC2)cn1` [Compound 557], the activation at 5 µM is more than 75%. On the same count and under the same terms, the value for `CCOc1cn2nc(C)cc2cc1C(=O)Nc1cnc(N2CC3CCC2C2CNCC32)cn1` (centres unmarked) [Compound 492] was 50 to 75%; that for `CCOc1cc2nn(C)cc2cc1C(=O)Nc1cnc(N2CCNC(C)C2)cn1` (centres unmarked) [Compound 374] was more than 75%; that for `CCOc1cn2nc(C)cc2cc1C(=O)Nc1cnc(NCC[C@@H]2CCNC2)cn1` [Compound 516] was less than 50%. On the same count and under the same terms, the value for `CCOc1cn2nc(C)cc2cc1C(=O)Nc1cnc(NCC2CCNC2)cn1` (centres unmarked) [Compound 550] was more than 75%.

Still in this assay, the particulars now being: Homo sapiens; mini-gene firefly luciferase reporter in HEK293 cells.
In turn, `COc1cc2nc(C)cn2cc1C(=O)Nc1cnc(N2CCNCC2)nc1` [Compound 120, 7-methoxy-2-methyl-N-(2-(piperazin-1-yl)pyrimidin-5-yl)imidazo[1,2-a]pyridine-6-carboxamide] returned an IC50 of 1000 to 10000 nM. The same measure, in the same setting: the value for `COc1cc2nc(C)cn2cc1C(=O)Nc1ccc(N2CCCNCC2)cc1F` [Compound 175, N-(4-(1,4-diazepan-1-yl)-2-fluorophenyl)-7-methoxy-2-methylimidazo[1,2-a]pyridine-6-carboxamide] was less than 1000 nM; that for `CCOc1cc2nc(C)cn2cc1C(=O)Nc1ccc(N(C)C2CCNC2)nn1` (centres unmarked) [Compound 288] was 1000 to 10000 nM. Still for that read-out and setting: the result for `COc1cc2nc(C)cn2cc1C(=O)Nc1ccc(N2CCNC(C)C2C)cc1F` (centres unmarked) [Compound 157, N-(4-(2,3-dimethylpiperazin-1-yl)-2-fluorophenyl)-7-methoxy-2-methylimidazo[1,2-a]pyridine-6-carboxamide] reads less than 1000 nM; that for `CCOc1cc2nc(C)cn2cc1C(=O)Nc1ccc(N2CCN(C)CC2)nn1` [Compound 729, 7-ethoxy-2-methyl-N-(6-(4-methylpiperazin-1-yl)pyridazin-3-yl)imidazo[1,2-a]pyridine-6-carboxamide], 1000 to 10000 nM; that for `CCOc1nc2nn(C)cc2cc1C(=O)Nc1cnc(N2CCNCC2)cn1` [Compound 742, 6-ethoxy-2-methyl-N-(5-(piperazin-1-yl)pyrazin-2-yl)-2H-pyrazolo[3,4-b]pyridine-5-carboxamide hydrochloride], 1000 to 10000 nM.

`CCOc1cn2nc(C)cc2cc1C(=O)Nc1cnc(N2C[C@@H](C)N[C@@H](C)C2)cn1` [Compound 744, N-(5-((3S,5R)-3,5-dimethylpiperazin-1-yl)pyrazin-2-yl)-6-ethoxy-2-methylpyrazolo[1,5-a]pyridine-5-carboxamide hydrochloride] had a half-inhibitory concentration (IC50) of 1000 to 10000 nM. `CNC1CCN(c2ccc(NC(=O)c3cn4cc(C)nc4cc3OC)c(F)c2)C1` (centres unmarked) [Compound 176, N-(2-fluoro-4-(3-(methylamino)pyrrolidin-1-yl)phenyl)-7-methoxy-2-methylimidazo[1,2-a]pyridine-6-carboxamide] displayed a half-maximal inhibitory concentration (IC50) of less than 1000 nM. In turn, `CCOc1cc2nc(C)cn2cc1C(=O)Nc1ccc(N2CCNC(C)(C)C2)nn1` [Compound 221, N-(6-(3,3-dimethylpiperazin-1-yl)pyridazin-3-yl)-7-ethoxy-2-methylimidazo[1,2-a]pyridine-6-carboxamide hydrochloride] yielded an IC50 of less than 1000 nM. The same measure, in the same setting: the result for `COc1cc2nc(C)cn2cc1C(=O)Nc1ccc(N2CC3CCCC(C2)N3)cc1F` [Compound 147, N-(4-(3,9-diazabicyclo[3.3.1]nonan-3-yl)-2-fluorophenyl)-7-methoxy-2-methylimidazo[1,2-a]pyridine-6-carboxamide] reads less than 1000 nM.

`COc1cc2nc(C)cn2cc1C(=O)Nc1ccc(N2CCNCC2)nn1` [Compound 118, 7-methoxy-2-methyl-N-[6-(piperazin-1-yl)pyridazin-3-yl]imidazo[1,2-a]pyridine-6-carboxamide] came in with a half-inhibitory concentration (IC50) of less than 1000 nM. Still for that read-out and setting: the result for `CCOc1cc2nc(C)cn2cc1C(=O)Nc1ccc(N2CC3CCCC(C2)N3)nn1` [Compound 255] reads less than 1000 nM; that for `Cc1cn2cc(C(=O)Nc3ccc(N4CCN[C@@H](C)C4)nn3)c(OC3CCC3)cc2n1` [Compound 122, (S)-7-cyclobutoxy-2-methyl-N-(6-(3-methylpiperazin-1-yl)pyridazin-3-yl)imidazo[1,2-a]pyridine-6-carboxamide hydrochloride], less than 1000 nM.
